{
  "source": "PubChem BioAssay AID2060886",
  "about": "(Molecular Pharmacology Branch, DTP, NCI, 2025)",
  "system": "653999-131-R-J2-PDC complex spheroids, growth inhibition",
  "assay": "Anticancer human tumor 653999-131-R-J2-PDC patient-derived lung adenocarcinoma cell line growth inhibition [RAS]",
  "details": "for pIC50: curve of first compound; for viability, T/C: stronger effect = lower value",
  "procedure,_shortened": "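Multi-cell-type spheroids: tumor cells plus HUVEC endothelial cells and mesenchymal stem cells. RAS-pathway inhibitors were combined with targeted agents, each dosed in half-log steps down from clinical Cmax, or from 10 microM when Cmax was unknown.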",
  "key": {"[1]": {"details": "second compound 0.00316 µM, first compound 0.0316 µM"}, "[2]": {"details": "second compound 0.00316 µM, first compound 0.1 µM"}, "[3]": {"details": "second compound 0.00316 µM, first compound 0.316 µM"}, "[4]": {"details": "second compound 0.00316 µM, first compound 1 µM"}, "[5]": {"details": "second compound 0.01 µM, first compound 0.0316 µM"}, "[6]": {"details": "second compound 0.01 µM, first compound 0.1 µM"}, "[7]": {"details": "second compound 0.01 µM, first compound 0.316 µM"}, "[8]": {"details": "second compound 0.01 µM, first compound 1 µM"}, "[9]": {"details": "second compound 0.0316 µM, first compound 0.0316 µM"}, "[10]": {"details": "second compound 0.0316 µM, first compound 0.1 µM"}, "[11]": {"details": "second compound 0.0316 µM, first compound 0.316 µM"}, "[12]": {"details": "second compound 0.0316 µM, first compound 1 µM"}, "[13]": {"details": "second compound 0.1 µM, first compound 0.0316 µM"}, "[14]": {"details": "second compound 0.1 µM, first compound 0.1 µM"}, "[15]": {"details": "second compound 0.1 µM, first compound 0.316 µM"}, "[16]": {"details": "second compound 0.1 µM, first compound 1 µM"}, "[17]": {"details": "second compound 0.316 µM, first compound 0.0316 µM"}, "[18]": {"details": "second compound 0.316 µM, first compound 0.1 µM"}, "[19]": {"details": "second compound 0.316 µM, first compound 0.316 µM"}, "[20]": {"details": "second compound 0.316 µM, first compound 1 µM"}, "[21]": {"details": "second compound 1 µM, first compound 0.0316 µM"}, "[22]": {"details": "second compound 1 µM, first compound 0.1 µM"}, "[23]": {"details": "second compound 1 µM, first compound 0.316 µM"}, "[24]": {"details": "second compound 1 µM, first compound 1 µM"}},
  "note": "pIC50: −log10 of the molar value.",
  "data": [
    {"compound": "CC(=O)OC12COC1CC(O)C1(C)C(=O)C(O)C3=C(C)C(OC(=O)C(O)C(NC(=O)OC(C)(C)C)c4ccccc4)CC(O)(C(OC(=O)c4ccccc4)C21)C3(C)C", "note": "(centres undefined) + C=CC(=O)N1CCN(c2nc(OCC3CCCN3C)nc3c(F)c(-c4nc(N)cc(C)c4C(F)(F)F)c(Cl)cc23)C(C)C1;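 further: spheroids exposed to the agents for seven days before the readout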", "values": [
      {"measurement": "pIC50", "setting": "second compound 0.00316 µM", "result": "< 5.00"},
      {"measurement": "pIC50", "setting": "second compound 0.01 µM", "result": "< 5.00"},
      {"measurement": "pIC50", "setting": "second compound 0.0316 µM", "result": "< 5.00"},
      {"measurement": "pIC50", "setting": "second compound 0.1 µM", "result": "< 5.00"},
      {"measurement": "pIC50", "setting": "second compound 0.316 µM", "result": "< 5.00"},
      {"measurement": "pIC50", "setting": "second compound 1 µM", "result": "< 5.00"},
      {"measurement": "viability, T/C", "setting": "[1]", "result": 56.6, "unit": "%"},
      {"measurement": "viability, T/C", "setting": "[2]", "result": 48.1, "unit": "%"},
      {"measurement": "viability, T/C", "setting": "[3]", "result": 56, "unit": "%"},
      {"measurement": "viability, T/C", "setting": "[4]", "result": 58.8, "unit": "%"},
      {"measurement": "viability, T/C", "setting": "second compound 0.00316 µM, first compound 3.16 µM", "result": 61.7, "unit": "%"},
      {"measurement": "viability, T/C", "setting": "second compound 0.00316 µM, first compound 10 µM", "result": 68, "unit": "%"},
      {"measurement": "viability, T/C", "setting": "[5]", "result": 63.7, "unit": "%"},
      {"measurement": "viability, T/C", "setting": "[6]", "result": 54.2, "unit": "%"},
      {"measurement": "viability, T/C", "setting": "[7]", "result": 57.9, "unit": "%"},
      {"measurement": "viability, T/C", "setting": "[8]", "result": 67.5, "unit": "%"},
      {"measurement": "viability, T/C", "setting": "second compound 0.01 µM, first compound 3.16 µM", "result": 62.6, "unit": "%"},
      {"measurement": "viability, T/C", "setting": "second compound 0.01 µM, first compound 10 µM", "result": 76, "unit": "%"},
      {"measurement": "viability, T/C", "setting": "[9]", "result": 58.4, "unit": "%"},
      {"measurement": "viability, T/C", "setting": "[10]", "result": 59.2, "unit": "%"},
      {"measurement": "viability, T/C", "setting": "[11]", "result": 49.2, "unit": "%"},
      {"measurement": "viability, T/C", "setting": "[12]", "result": 58.7, "unit": "%"},
      {"measurement": "viability, T/C", "setting": "second compound 0.0316 µM, first compound 3.16 µM", "result": 73.4, "unit": "%"},
      {"measurement": "viability, T/C", "setting": "second compound 0.0316 µM, first compound 10 µM", "result": 66.5, "unit": "%"},
      {"measurement": "viability, T/C", "setting": "[13]", "result": 59.5, "unit": "%"},
      {"measurement": "viability, T/C", "setting": "[14]", "result": 57.2, "unit": "%"},
      {"measurement": "viability, T/C", "setting": "[15]", "result": 53.7, "unit": "%"},
      {"measurement": "viability, T/C", "setting": "[16]", "result": 56.2, "unit": "%"},
      {"measurement": "viability, T/C", "setting": "second compound 0.1 µM, first compound 3.16 µM", "result": 72.5, "unit": "%"},
      {"measurement": "viability, T/C", "setting": "second compound 0.1 µM, first compound 10 µM", "result": 93.3, "unit": "%"},
      {"measurement": "viability, T/C", "setting": "[17]", "result": 55.7, "unit": "%"},
      {"measurement": "viability, T/C", "setting": "[18]", "result": 61.3, "unit": "%"},
      {"measurement": "viability, T/C", "setting": "[19]", "result": 54.5, "unit": "%"},
      {"measurement": "viability, T/C", "setting": "[20]", "result": 63.5, "unit": "%"},
      {"measurement": "viability, T/C", "setting": "second compound 0.316 µM, first compound 3.16 µM", "result": 79.8, "unit": "%"},
      {"measurement": "viability, T/C", "setting": "second compound 0.316 µM, first compound 10 µM", "result": 84.1, "unit": "%"},
      {"measurement": "viability, T/C", "setting": "[21]", "result": 53, "unit": "%"},
      {"measurement": "viability, T/C", "setting": "[22]", "result": 57.5, "unit": "%"},
      {"measurement": "viability, T/C", "setting": "[23]", "result": 62.3, "unit": "%"},
      {"measurement": "viability, T/C", "setting": "[24]", "result": 60.3, "unit": "%"},
      {"measurement": "viability, T/C", "setting": "second compound 1 µM, first compound 3.16 µM", "result": 62.9, "unit": "%"},
      {"measurement": "viability, T/C", "setting": "second compound 1 µM, first compound 10 µM", "result": 82.4, "unit": "%"}
    ]},
    {"compound": "Nc1ccn(C2OC(CO)C(O)C2(F)F)c(=O)n1", "note": "(centres undefined) + C=CC(=O)N1CCN(c2nc(OCC3CCCN3C)nc3c(F)c(-c4nc(N)cc(C)c4C(F)(F)F)c(Cl)cc23)C(C)C1", "values": [
      {"measurement": "pIC50", "setting": "second compound 0.00316 µM", "result": 6.90},
      {"measurement": "pIC50", "setting": "second compound 0.01 µM", "result": 7.21},
      {"measurement": "pIC50", "setting": "second compound 0.0316 µM", "result": 7.07},
      {"measurement": "pIC50", "setting": "second compound 0.1 µM", "result": 7.33},
      {"measurement": "pIC50", "setting": "second compound 0.316 µM", "result": 7.03},
      {"measurement": "pIC50", "setting": "second compound 1 µM", "result": 7.04},
      {"measurement": "viability, T/C", "setting": "second compound 0.00316 µM, first compound 0.00316 µM", "result": 86.5, "unit": "%"},
      {"measurement": "viability, T/C", "setting": "second compound 0.00316 µM, first compound 0.01 µM", "result": 82.4, "unit": "%"},
      {"measurement": "viability, T/C", "setting": "[1]", "result": 61.8, "unit": "%"},
      {"measurement": "viability, T/C", "setting": "[2]", "result": 56, "unit": "%"},
      {"measurement": "viability, T/C", "setting": "[3]", "result": 38.7, "unit": "%"},
      {"measurement": "viability, T/C", "setting": "[4]", "result": 32, "unit": "%"},
      {"measurement": "viability, T/C", "setting": "second compound 0.01 µM, first compound 0.00316 µM", "result": 107, "unit": "%"},
      {"measurement": "viability, T/C", "setting": "second compound 0.01 µM, first compound 0.01 µM", "result": 78.3, "unit": "%"},
      {"measurement": "viability, T/C", "setting": "[5]", "result": 54, "unit": "%"},
      {"measurement": "viability, T/C", "setting": "[6]", "result": 45.9, "unit": "%"},
      {"measurement": "viability, T/C", "setting": "[7]", "result": 41.2, "unit": "%"},
      {"measurement": "viability, T/C", "setting": "[8]", "result": 29.7, "unit": "%"},
      {"measurement": "viability, T/C", "setting": "second compound 0.0316 µM, first compound 0.00316 µM", "result": 80.3, "unit": "%"},
      {"measurement": "viability, T/C", "setting": "second compound 0.0316 µM, first compound 0.01 µM", "result": 79.8, "unit": "%"},
      {"measurement": "viability, T/C", "setting": "[9]", "result": 67.8, "unit": "%"},
      {"measurement": "viability, T/C", "setting": "[10]", "result": 46.6, "unit": "%"},
      {"measurement": "viability, T/C", "setting": "[11]", "result": 38.2, "unit": "%"},
      {"measurement": "viability, T/C", "setting": "[12]", "result": 33.8, "unit": "%"},
      {"measurement": "viability, T/C", "setting": "second compound 0.1 µM, first compound 0.00316 µM", "result": 84.3, "unit": "%"},
      {"measurement": "viability, T/C", "setting": "second compound 0.1 µM, first compound 0.01 µM", "result": 77.3, "unit": "%"},
      {"measurement": "viability, T/C", "setting": "[13]", "result": 55.7, "unit": "%"},
      {"measurement": "viability, T/C", "setting": "[14]", "result": 38.2, "unit": "%"},
      {"measurement": "viability, T/C", "setting": "[15]", "result": 40.1, "unit": "%"},
      {"measurement": "viability, T/C", "setting": "[16]", "result": 30.5, "unit": "%"},
      {"measurement": "viability, T/C", "setting": "second compound 0.316 µM, first compound 0.00316 µM", "result": 94.6, "unit": "%"},
      {"measurement": "viability, T/C", "setting": "second compound 0.316 µM, first compound 0.01 µM", "result": 80.4, "unit": "%"},
      {"measurement": "viability, T/C", "setting": "[17]", "result": 59.9, "unit": "%"},
      {"measurement": "viability, T/C", "setting": "[18]", "result": 48.2, "unit": "%"},
      {"measurement": "viability, T/C", "setting": "[19]", "result": 42.2, "unit": "%"},
      {"measurement": "viability, T/C", "setting": "[20]", "result": 29.8, "unit": "%"},
      {"measurement": "viability, T/C", "setting": "second compound 1 µM, first compound 0.00316 µM", "result": 89.5, "unit": "%"},
      {"measurement": "viability, T/C", "setting": "second compound 1 µM, first compound 0.01 µM", "result": 81.4, "unit": "%"},
      {"measurement": "viability, T/C", "setting": "[21]", "result": 60.6, "unit": "%"},
      {"measurement": "viability, T/C", "setting": "[22]", "result": 48.9, "unit": "%"},
      {"measurement": "viability, T/C", "setting": "[23]", "result": 42.2, "unit": "%"},
      {"measurement": "viability, T/C", "setting": "[24]", "result": 33.7, "unit": "%"}
    ]}
  ]
}
